Data from patent US20050032810A1, “Novel anthelmintic and insecticidal compositions” (priority 2003, published 2005).

Tested on: H. contortus larvae
Assay: H. contortus Larval Development Assay
Assay type: cell-based
Settings: at 10 μM
Description: Compounds can be evaluated for anthelmintic activity according to the H. contortus Larval Development Assay described in Journal of Helminthology, 1984, 58, 107.

Nc1cc(N2CCC(c3ccccc3)CC2)nc(N)n1 [Compound 2, 6-(4-phenylpiperidin-1-yl)pyrimidine-2,4-diamine]
motility of the larvae: inhibited motility of the larvae
